US20100137275A1 (IPSEN PHARMA S.A.S., priority 2007, published 2010)
Read-outs that look alike come from different tables or passages of the source.

Columns and labels:
[1] = biological target: T1, purified recombinant Cdc25-C enzyme (MBP-Cdc25C protein) (Homo sapiens, UniProt P30307); assay: Phosphatase activity of the purified recombinant Cdc25C enzyme (OMFP dephosphorylation, fluorescence); assay type: biochemical; details: OMFP 500 μM, 4 hours at 30° C.
T1 construct: made in house
T1 sequence (P30307 1-473): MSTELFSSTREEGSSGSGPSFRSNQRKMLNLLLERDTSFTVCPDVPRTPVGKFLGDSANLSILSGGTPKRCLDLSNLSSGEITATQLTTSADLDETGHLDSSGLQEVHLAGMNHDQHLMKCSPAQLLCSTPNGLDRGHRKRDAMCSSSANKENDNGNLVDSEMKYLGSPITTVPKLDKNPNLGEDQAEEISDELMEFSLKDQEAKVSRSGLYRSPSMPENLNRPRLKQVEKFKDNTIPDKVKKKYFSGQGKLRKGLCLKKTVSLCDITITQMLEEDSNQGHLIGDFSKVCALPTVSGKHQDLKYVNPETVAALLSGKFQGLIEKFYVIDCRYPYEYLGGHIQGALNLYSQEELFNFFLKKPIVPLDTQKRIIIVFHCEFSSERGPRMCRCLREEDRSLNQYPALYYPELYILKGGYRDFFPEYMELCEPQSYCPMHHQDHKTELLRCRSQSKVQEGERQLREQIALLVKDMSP
Procedure: The phosphatase activity of the MBP-Cdc25C protein is evaluated through its dephosphorylation of 3-O-methylfluorescein-phosphate (OMFP) to form 3-O-methylfluorescein (OMF), determining the fluorescence of the reaction product at 475 nm. This assay can be used to identify inhibitors of the recombinant Cdc25 enzyme. The preparation of the MBP-Cdc25C fusion protein is described in patent application PCT WO 01/44467.
The reaction is performed in 384-well plates in a final volume of 50 μl. The MBP-Cdc25C protein (prepared as described hereinabove) is stored in the following elution buffer: 20 mM Tris-HCl pH 7.4; 250 mM NaCl; 1 mM EDTA; 1 mM dithiothreitol (DTT); 10 mM maltose. It is diluted to a concentration of 60 μM in the following reaction buffer: 50 mM Tris-HCl pH 8.2; 50 mM NaCl; 1 mM DTT; 20% glycerol. The background noise is determined using with the buffer without addition of the enzyme. The products are tested at decreasing concentrations from 40 μM. The reaction is initiated by the addition of a solution OMFP to a final concentration of 500 μM (prepared immediately before use from a 12.5 mM stock solution in 100% DMSO (Sigma #M2629)). After 4 hours at 30° C. in a disposable 384-well plate, the fluorescence measured at OD 475 nm is read on a Victor^2 plate reader (EGG-Wallac). The concentration that produces 50% inhibition of the enzyme reaction is calculated from three independent experiments. Only the values that fall within the linear part of the sigmoid curve are used for the linear regression analysis.

[2] = test system: DU145 (human prostate cancer cells); assay: Anti-proliferative activity on DU-145 cell line (WST1 colorimetric test); assay type: cell-based; details: read-out: IC50 on the proliferation of the DU-145 cell line
Procedure: By way of an example, the effect of treating two human cell lines Mia-Paca2 and DU145 with the compounds of the examples described hereinbefore will be studied. The cell lines DU145 (human prostate cancer cells) and Mia-PaCa2 (human pancreas cancer cells) were obtained from the American Tissue Culture Collection (Rockville, Md., USA). A 96-well plate was inoculated on day 0 with cells placed in 80 μl of Dulbecco's modified Eagle's medium (Gibco-Brl, Cergy-Pontoise, France) with 10% heat-inactivated foetal calf serum (Gibco-Brl, Cergy-Pontoise, France), 50000 units/1 of penicillin and 50 mg/l of streptomycin (Gibco-Brl, Cergy-Pontoise, France), and 2 mM of glutamine (Gibco-Brl, Cergy-Pontoise, France). The cells were treated on day 1 with increasing concentrations of each test compound up to 10 μM for 96 hours. At the end of this period, cell proliferation is quantified by means of a colorimetric test based on cleavage of the tetrazolium salt WST1 by the mitochondrial dehydrogenases in the viable cells, resulting in formation of formazan (Boehringer Mannheim, Meylan, France). These tests are performed in duplicate with 8 determinations per concentration tested. For each compound to be tested, the values within the linear part of the sigmoid curve were subjected to linear regression analysis and used to estimate the IC50 inhibitory concentration. The products are solubilised in dimethylsulfoxide (DMSO) at a concentration of 10^−2 M and used in culture with a final DMSO concentration of 0.1%.

[3] = DU-145, 96 h, 96 hours treatment

| IC50 [1] | melting point | IC50 [2, 3] | Compound | IC50 ([2]; DU-145, 96 hours treatment) |
| --- | --- | --- | --- | --- |
| ≤ 1 µM | 67 to 69 °C | ≤ 5 µM | CSc1ccc(NC(=S)NCCN(C)CCNc2cc(N3CCCC3)nc(N3CCCC3)n2)cc1 [Example 51, N-{2-[{2-[(2,6-dipyrrolidin-1-ylpyrimidin-4-yl)amino]ethyl}(methyl)amino]ethyl}-N′-[4-(methylthio)phenyl]thiourea] |  |
| ≤ 5 µM |  | ≤ 5 µM | CN(CCNC(=S)Nc1ccc(Oc2ccc([N+](=O)[O-])cc2)cc1)CCNc1cc(N2CCCC2)nc(N2CCCC2)n1 [Example 45, N-{2-[{2-[(2,6-dipyrrolidin-1-ylpyrimidin-4-yl)amino]ethyl}(methyl)amino]ethyl}-N′-[4-(4-nitrophenoxy)phenyl]thiourea] |  |
|  | 87 to 89 °C | ≤ 5 µM | CN(CCNC(=S)Nc1ccc(C(F)(F)F)cc1)CCNc1cc(N2CCCC2)nc(N2CCCC2)n1 [Example 25, N-{2-[{2-[(2,6-dipyrrolidin-1-ylpyrimidin-4-yl)amino]ethyl}(methyl)amino]ethyl}-N′-[4-(trifluoromethyl)phenyl]thiourea] |  |
| ≤ 1 µM | 146 to 148 °C |  | CN(CCNC(=S)Nc1ccc([N+](=O)[O-])cc1)CCNc1cc(N2CCCC2)nc(N2CCCC2)n1 [Example 43, N-{2-[{2-[(2,6-dipyrrolidin-1-ylpyrimidin-4-yl)amino]ethyl}(methyl)amino]ethyl}-N′-(4-nitrophenyl)thiourea] |  |
| ≤ 5 µM | 119 to 121 °C |  | CN(CCNC(=O)c1ccc(C(=O)c2ccccc2)cc1)CCNc1cc(N2CCCC2)nc(N2CCCC2)n1 [Example 83, 4-benzoyl-N-{2-[{2-[(2,6-dipyrrolidin-1-ylpyrimidin-4-yl)amino]ethyl}(methyl)amino]ethyl}benzamide] |  |
| ≤ 5 µM | 124 to 126 °C |  | CN(CCNC(=S)Nc1cc(F)cc(F)c1)CCNc1cc(N2CCCC2)nc(N2CCCC2)n1 [Example 41, N-(3,5-difluorophenyl)-N′-{2-[{2-[(2,6-dipyrrolidin-1-ylpyrimidin-4-yl)amino]ethyl}(methyl)amino]ethyl}thiourea] |  |
| ≤ 1 µM | 107 to 109 °C |  | CN(CCNC(=S)Nc1ccc(C#N)cc1)CCNc1cc(N2CCCC2)nc(N2CCCC2)n1 [Example 77, N-(4-cyanophenyl)-N′-{2-[{2-[(2,6-dipyrrolidin-1-ylpyrimidin-4-yl)amino]ethyl}(methyl)amino]ethyl}thiourea] |  |
| ≤ 1 µM | 82 to 84 °C |  | CCNC(=S)NCCN(C)CCNc1cc(N2CCCC2)nc(N2CCCC2)n1 [Example 28, N-{2-[{2-[(2,6-dipyrrolidin-1-ylpyrimidin-4-yl)amino]ethyl}(methyl)amino]ethyl}-N′-ethylthiourea] |  |
| ≤ 1 µM | 133 to 135 °C |  | CN(CCNC(=S)Nc1ccc(F)c(F)c1)CCNc1cc(N2CCCC2)nc(N2CCCC2)n1 [Example 67, N-(3,4-difluorophenyl)-N′-{2-[{2-[(2,6-dipyrrolidin-1-ylpyrimidin-4-yl)amino]ethyl}(methyl)amino]ethyl}thiourea] |  |
| ≤ 5 µM | 87 to 89 °C |  | CN(CCNC(=O)NCc1ccccc1)CCNc1cc(N2CCCC2)nc(N2CCCC2)n1 [Example 8, N-benzyl-N′-{2-[{2-[(2,6-dipyrrolidin-1-ylpyrimidin-4-yl)amino]ethyl}(methyl)amino]ethyl}urea] |  |
| ≤ 5 µM | 80 to 82 °C |  | S=C(NCCCCCNc1cc(N2CCCC2)nc(N2CCCC2)n1)Nc1ccc(Cl)cc1 [Example 58, N-(4-chlorophenyl)-N′-{5-[(2,6-dipyrrolidin-1-ylpyrimidin-4-yl)amino]pentyl}thiourea] |  |
| ≤ 5 µM | 148 to 150 °C |  | CN(CCNC(=S)Nc1ccc(Cl)c(Cl)c1)CCNc1cc(N2CCCC2)nc(N2CCCC2)n1 [Example 55, N-(3,4-dichlorophenyl)-N′-{2-[{2-[(2,6-dipyrrolidin-1-ylpyrimidin-4-yl)amino]ethyl}(methyl)amino]ethyl}thiourea] |  |
| ≤ 1 µM | 95 to 97 °C |  | Cc1noc(C)c1NC(=O)NCCN(C)CCNc1cc(N2CCCC2)nc(N2CCCC2)n1 [Example 13, N-(3,5-dimethylisoxazol-4-yl)-N′-{2-[{2-[(2,6-dipyrrolidin-1-ylpyrimidin-4-yl)amino]ethyl}(methyl)amino]ethyl}urea] |  |
| ≤ 5 µM | 67 to 69 °C |  | CN(CCN)CCNc1cc(N2CCCC2)nc(N2CCCC2)n1 [Example 1, N-{2-[(2,6-dipyrrolidin-1-ylpyrimidin-4-yl)amino]ethyl}-N-methylethane-1,2-diamine] |  |
| ≤ 5 µM | 146 to 148 °C |  | CN(CCNC(=S)Nc1ccc(Cl)c(F)c1)CCNc1cc(N2CCCC2)nc(N2CCCC2)n1 [Example 56, N-(4-chloro-3-fluorophenyl)-N′-{2-[{2-[(2,6-dipyrrolidin-1-ylpyrimidin-4-yl)amino]ethyl}(methyl)amino]ethyl}thiourea] |  |
| ≤ 5 µM | 116 to 118 °C |  | CN(CCNC(=S)Nc1ccc(N2CCOCC2)nc1)CCNc1cc(N2CCCC2)nc(N2CCCC2)n1 [Example 32, N-{2-[{2-[(2,6-dipyrrolidin-1-ylpyrimidin-4-yl)amino]ethyl}(methyl)amino]ethyl}-N′-(6-morpholin-4-ylpyridin-3-yl)thiourea] |  |
| ≤ 5 µM | 79 to 81 °C |  | O=C(NCCOCCNc1cc(N2CCCC2)nc(N2CCCC2)n1)Nc1ccc(Cl)c(C(F)(F)F)c1 [Example 20, N-[4-chloro-3-(trifluoromethyl)phenyl]-N′-(2-{2-[(2,6-dipyrrolidin-1-ylpyrimidin-4-yl)amino]ethoxy}ethyl)urea] |  |
| ≤ 1 µM | 120 to 122 °C |  | CN(CCNC(=NC#N)Nc1ccc(Cl)cc1)CCNc1cc(N2CCCC2)nc(N2CCCC2)n1 [Example 81, N-(4-chlorophenyl)-N″-cyano-N′-{2-[{2-[(2,6-dipyrrolidin-1-ylpyrimidin-4-yl)amino]ethyl}(methyl)amino]ethyl}guanidine] |  |
| ≤ 5 µM | 171 to 173 °C |  | COc1ccc(C(=O)NC(=S)NCCN(C)CCNc2cc(N3CCCC3)nc(N3CCCC3)n2)cc1 [Example 80, N-[({2-[{2-[(2,6-dipyrrolidin-1-ylpyrimidin-4-yl)amino]ethyl}(methyl)amino]ethyl}amino)carbonothioyl]-4-methoxybenzamide] |  |
| ≤ 1 µM | 103 to 105 °C |  | CN(CCNC(=O)NCc1ccco1)CCNc1cc(N2CCCC2)nc(N2CCCC2)n1 [Example 14, N-{2-[{2-[(2,6-dipyrrolidin-1-ylpyrimidin-4-yl)amino]ethyl}(methyl)amino]ethyl}-N′-(2-furylmethyl)urea] |  |

| Compound | IC50 [1] | melting point | IC50 [2, 3] | IC50 ([2]; DU-145, 96 hours treatment) |
| --- | --- | --- | --- | --- |
| CN(CCNC(=O)N[C@@H]1CCc2ccccc2C1)CCNc1cc(N2CCCC2)nc(N2CCCC2)n1 [Example 11] | ≤ 5 µM |  |  | ≤ 5 µM |
